# Results published in US10457707B2, “Substituted urea depsipeptide analogs as activators of the CLPP endopeptidase” (priority 2015, dated 2019).
# *1 amine or outer side, *2 acyl side, *3 side chain or, on linkers, in order; H or OH if unused. Where a SMILES comes first, the peptide text is derived from it. Bridges are numbered along the chain shown (N, C = ends). [ ]: non-standard residue; d: D form. The star is where a group is joined. ξ: configuration not given here. Phe(3,5-F2) = N[C@@H](Cc1cc(F)cc(F)c1)C(=O)O; NH(1-Me-indolin-5-yl) = CN1CCc2cc(N*)ccc21; NH(4-OCF3-phenyl) = FC(F)(F)Oc1ccc(N*)cc1; Morpholine(3S-CO) = O=C(O)[C@@H]1COCCN1; NH(4-Cl-2-F-phenyl) = Fc1cc(Cl)ccc1N*; Pro(4R-Me) = C[C@H]1CN[C@H](C(=O)O)C1; Hyp = O=C(O)[C@@H]1C[C@@H](O)CN1; NH(4-Et-phenyl) = CCc1ccc(N*)cc1; NMeT = CN[C@H](C(=O)O)[C@@H](C)O; Heptenoyl(2E) = CCCC/C=C/C(=O)*; aThr = C[C@H](O)[C@H](N)C(=O)O; Pip = O=C(O)[C@@H]1CCCCN1; NMeA = CN[C@@H](C)C(=O)O; X2 = CN1CCc2ccc(N*)cc21; X8 = c1cc2c(cc1N*)CCO2; X6 = Cc1cc(C)cc(N*)c1; CO = O=C([*:1])[*:2]; ξP = O=C(O)C1CCCN1
# System: Streptococcus pneumoniae, R6
# Experiment: Minimal inhibitory concentration assay
# Assay type: cell-based
# Settings: read-out: Minimal Inhibitory Concentrations S. pneumoniae R6
# Outline: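 Microbroth dilution with two-fold serial compound dilutions in broth, incubated aerobically overnight at 37° C. MIC taken as the lowest concentration preventing bacterial growth.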
row,SMILES,MIC [µM]
1,"C[C@@H]1C[C@H]2C(=O)OC[C@H](NC(=O)[C@H](Cc3cc(F)cc(F)c3)NC(=O)Nc3ccc4c(c3)OCO4)C(=O)N3CCC[C@H]3C(=O)N3CCCC[C@H]3C(=O)N[C@@H](C)C(=O)N2C1 [Compound 195, (S)-2-(3-(benzo[d][1,3]dioxol-5-yl)ureido)-3-(3,5-difluorophenyl)-N-((2R,6S,8aS,14aS,20S,23aS)-2,6-dimethyl-5,8,14,19,23-pentaoxooctadecahydro-1H,5H,14H,19H-pyrido[2,1-i]dipyrrolo[2,1-c:2′,1′-l][1]oxa[4,7,10,13]tetraazacyclohexadecin-20-yl)propanamide]",0.1
2,C[C@@H]1C[C@H]2C(=O)OC[C@H](NC(=O)[C@H](Cc3ccccc3)NC(=O)Nc3ccc(OC(F)(F)F)cc3)C(=O)N3CCC[C@H]3C(=O)N3CCCC[C@H]3C(=O)N[C@@H](C)C(=O)N2C1 [Compound 205],0.2
3,"C[C@@H]1NC(=O)[C@H](C)N(C)C(=O)[C@@H]2CCCN2C(=O)[C@@H](NC(=O)[C@H](Cc2ccccc2)NC(=O)Nc2ccc(OC(F)(F)F)cc2)COC(=O)C2CCCN2C1=O (stereo partly drawn) [Compound 213, (2S)-3-phenyl-2-(3-(4-(trifluoromethoxy)phenyl)ureido)-N-((6S,9S,11aS,17S)-6,9,10-trimethyl-5,8,11,16,20-pentaoxohexadecahydro-1H,5H,16H-dipyrrolo[2,1-c:2′,1′-l][1]oxa[4,7,10,13]tetraazacyclohexadecin-17-yl)propanamide] ({NH(4-OCF3-phenyl)-CO}-FSP[NMeA]A[ξP]; ester 2-C)",< 0.2

# Biological target: T1, Sa-ClpP (Staphylococcus aureus, UniProt Q2G036)
# T1 construct: made in house; host or cells: E. coli BL21(DE3)
# T1 sequence (Q2G036 1-195): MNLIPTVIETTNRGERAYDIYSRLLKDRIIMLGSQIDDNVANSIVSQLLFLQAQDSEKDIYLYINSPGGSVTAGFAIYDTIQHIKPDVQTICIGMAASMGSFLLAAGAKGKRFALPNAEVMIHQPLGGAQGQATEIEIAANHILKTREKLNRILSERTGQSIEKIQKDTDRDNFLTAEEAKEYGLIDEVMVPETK
# Experiment: Sa-ClpP casein-BODIPY ClpP activation assay, method variant not marked in Table 5
# Assay type: biochemical, S. aureus
# Settings: not given
# Experimental: The compounds were assayed in a casein digestion assay in order to determine their effect on ClpP activation. Briefly, the assay was carried out using S. aureus ClpP (“Sa-ClpP”) overexpressed in E. coli BL21(DE3) and purified in a two-step process. Purity of the protein was assessed through SDS PAGE analysis. EC50 evaluations were conducted in triplicate in a 20 μl assay format using a method adapted from Maurizi et al. (Methods Enzymol. (1994) 244:314-331). Each well contained 10 μM saClpP, 25 μg/ml BODIPY FL casein (Invitrogen Corporation, San Diego, Calif.), and test compound in concentrations ranging between 0-1000 μM in assay buffer (50 mM Tris pH 8, 200 mM KCl, and 1 mM TCEP). The reaction took place at 37° C. Fluorescence (excitation 485 nm; emission 528 nm) was measured in five minute intervals over a 45 min period using a BioTek HT fluorescence microplate reader (BioTek Instruments, Inc., Winooski, Vt.). Velocity of each reaction was calculated and data was fit to a dose response curve using GraphPad Prism® software (GraphPad Software, Inc., La Jolla, Calif.). EC50 is the effective concentration of compound which causes 50% activation of S. aureus ClpP in the foregoing BODIPY FL casein assay.
# Alternatively, the assay was carried out using EnzCheck Protease Assay (Molecular Probes, Catalog # E6638). The assay was performed in black 384 well, flat bottom, low volume plates (Greiner Bio-One, Monroe, N.C., catalog #784076). 10 μL of Tris*HCl buffer, pH 8.0 with 0.01% Triton X-100 was pipetted into each well using a Well-Mate (Thermo Scientific, Waltham, Mass.). 0.4 μL test compounds or controls (2% DMSO v/v) were added to each well using a Biomek FX liquid handling robot (Beckman Coulter, Indianapolis Ind.). After addition of test compounds and controls, 10 μL of master mix containing 2 μM Sa-ClpP and 2 μM substrate (Bodipy-FL labeled casein) in Tris*HCl buffer, pH 8.0 with 0.01% (v/v) Triton X-100, was pipetted into each well. All assays were performed in triplicate, under linear velocity conditions. Increase in fluorescent signal following activation of Sa-ClpP by test compounds and controls was measured over time period of 30 mins using filters with excitation at 485±15 nm and emission at 520±25 nm on a PHERAstar FS Multilabel reader (BMG, Cary, N.C.). […] Data analysis was done by measuring rate of casein degradation over time (slopes). Computed degradation rates (slopes) were normalized to positive (ADEP4) or negative (DMSO) controls. Using nonlinear regression curve fitting EC50 values and % activation were determined using the equation “log [agonist] vs. Response-variable slope (four parameters)-symmetrical” in the program Prism 6 (GraphPad Software, La Jolla, Calif. USA, www.graphpad.com).
# Substituted urea depsipetide analogs were synthesized as described above. The EC50 for ClpP activation was determined in the Sa-ClpP in casein-BODIPY assay as described above. The IC50 for ADEP displacement was determined in the ADEP displacement fluorescent polarization assay as described above; and the IC50 for growth inhibition was determined in the Vero cell cytotoxicity assay as described above. The compound number corresponds to the compound numbers used in Tables 1-4 and the experimental examples described above.
row,SMILES,EC50 [nM]
1,"C[C@@H]1C[C@H]2C(=O)O[C@@H](C)[C@H](NC(=O)[C@H](Cc3cc(F)cc(F)c3)NC(=O)Nc3ccc(Cl)cc3F)C(=O)N3C[C@H](O)C[C@H]3C(=O)N3CCCC[C@H]3C(=O)N[C@@H](C)C(=O)N2C1 [Compound 329, (S)-2-(3-(4-chloro-2-fluorophenyl)ureido)-3-(3,5-difluorophenyl)-N-((2R,6S,8aS,14aS,16R,20S,21S,23aS)-16-hydroxy-2,6,21-trimethyl-5,8,14,19,23-pentaoxooctadecahydro-1H,5H,14H,19H-pyrido[2,1-i]dipyrrolo[2,1-c:2′,1′-l][1]oxa[4,7,10,13]tetraazacyclo-hexadecin-20-yl)propanamide] ({NH(4-Cl-2-F-phenyl)-CO}-[Phe(3,5-F2)][aThr][Hyp][Pip]A[Pro(4R-Me)]; ester 2-C)",400 ± 20
2,"CCc1ccc(NC(=O)N[C@@H](Cc2cc(F)cc(F)c2)C(=O)N[C@@H]2C(=O)N3C[C@H](O)C[C@H]3C(=O)N3CCOC[C@H]3C(=O)N[C@@H](C)C(=O)N3C[C@H](C)C[C@H]3C(=O)O[C@H]2C)cc1 [Compound 320, (S)-3-(3,5-difluorophenyl)-2-(3-(4-ethylphenyl)ureido)-N-((6aS,8R,12S,13S,15aS,17R,21S,23aS)-8-hydroxy-13,17,21-trimethyl-6,11,15,20,23-pentaoxooctadecahydro-6H,11H,15H-[1,4]oxazino[3,4-i]dipyrrolo[2,1-c:2′,1′-l][1]oxa[4,7,10,13]-tetraazacyclohexadecin-12-yl)propanamide] ({NH(4-Et-phenyl)-CO}-[Phe(3,5-F2)][aThr][Hyp][Morpholine(3S-CO)]A[Pro(4R-Me)]; ester 2-C)",330 ± 100
3,"Cc1cc(C)cc(NC(=O)N[C@@H](Cc2cc(F)cc(F)c2)C(=O)N[C@@H]2C(=O)N3CCC[C@H]3C(=O)N3CCCC[C@H]3C(=O)N[C@@H](C)C(=O)N3C[C@H](C)C[C@H]3C(=O)O[C@H]2C)c1 [Compound 304, (S)-3-(3,5-difluorophenyl)-2-(3-(3,5-dimethylphenyl)ureido)-N-((2R,6S,8aS,14aS,20S,21S,23aS)-2,6,21-trimethyl-5,8,14,19,23-pentaoxooctadecahydro-1H,5H,14H,19H-pyrido[2,1-i]dipyrrolo[2,1-c:2′,1′-l][1]oxa[4,7,10,13]tetraazacyclo-hexadecin-20-yl)propanamide] ({X6-CO}-[Phe(3,5-F2)][aThr]P[Pip]A[Pro(4R-Me)]; ester 2-C)",380 ± 10

# Same assay, conditions: values without ** or † mark; assay variant not stated; read-out: ClpP Activation EC50
row,SMILES,EC50 [nM]
1,"C[C@@H]1C[C@H]2C(=O)O[C@@H](C)[C@H](NC(=O)[C@H](Cc3cc(F)cc(F)c3)NC(=O)Nc3ccc4c(c3)CCO4)C(=O)N3CCC[C@H]3C(=O)N3CCCC[C@H]3C(=O)N[C@@H](C)C(=O)N2C1 [Compound 305, (S)-3-(3,5-difluorophenyl)-2-(3-(2,3-dihydrobenzofuran-5-yl)ureido)-N-((2R,6S,8aS,14aS,20S,21S,23aS)-2,6,21-trimethyl-5,8,14,19,23-pentaoxooctadecahydro-1H,5H,14H,19H-pyrido[2,1-i]dipyrrolo[2,1-c:2′,1′-l][1]oxa[4,7,10,13]tetraazacyclo-hexadecin-20-yl)propanamide] ({X8-CO}-[Phe(3,5-F2)][aThr]P[Pip]A[Pro(4R-Me)]; ester 2-C)",480 ± 20
2,"C[C@@H]1C[C@H]2C(=O)O[C@@H](C)[C@H](NC(=O)[C@H](Cc3cc(F)cc(F)c3)NC(=O)Nc3ccc4c(c3)N(C)CC4)C(=O)N3CCC[C@H]3C(=O)N3CCCC[C@H]3C(=O)N[C@@H](C)C(=O)N2C1 [Compound 321, (S)-3-(3,5-difluorophenyl)-2-(3-(1-methylindolin-6-yl)ureido)-N-((2R,6S,8aS,14aS,20S,21S,23aS)-2,6,21-trimethyl-5,8,14,19,23-pentaoxooctadecahydro-1H,5H,14H,19H-pyrido[2,1-i]dipyrrolo[2,1-c:2′,1′-l][1]oxa[4,7,10,13]tetraazacyclo-hexadecin-20-yl)propanamide] ({X2-CO}-[Phe(3,5-F2)][aThr]P[Pip]A[Pro(4R-Me)]; ester 2-C)",520 ± 20
3,"CCCC/C=C/C(=O)N[C@@H](Cc1cc(F)cc(F)c1)C(=O)N[C@@H]1C(=O)N2CCC[C@H]2C(=O)N(C)[C@@H]([C@@H](C)O)C(=O)N[C@@H](C)C(=O)N2C[C@H](C)C[C@H]2C(=O)O[C@H]1C [Compound 308, (E)-N—((S)-3-(3,5-difluorophenyl)-1-(((2R,6S,9S,11aS,17S,18S,20aS)-9-((R)-1-hydroxyethyl)-2,6,10,18-tetramethyl-5,8,11,16,20-pentaoxohexadecahydro-1H,5H,16H-dipyrrolo[2,1-c:2′,1′-l][1]oxa[4,7,10,13]tetraazacyclohexadecin-17-yl)amino)-1-oxopropan-2-yl)hept-2-enamide] ({Heptenoyl(2E)}-[Phe(3,5-F2)][aThr]P[NMeT]A[Pro(4R-Me)]; ester 2-C)",280 ± 20
4,"C[C@@H]1C[C@H]2C(=O)O[C@@H](C)[C@H](NC(=O)[C@H](Cc3cc(F)cc(F)c3)NC(=O)Nc3ccc4c(c3)CCN4C)C(=O)N3CCC[C@H]3C(=O)N3CCCC[C@H]3C(=O)N[C@@H](C)C(=O)N2C1 [Compound 310, (S)-3-(3,5-difluorophenyl)-2-(3-(1-methylindolin-5-yl)ureido)-N-((2R,6S,8aS,14aS,20S,21S,23aS)-2,6,21-trimethyl-5,8,14,19,23-pentaoxooctadecahydro-1H,5H,14H,19H-pyrido[2,1-i]dipyrrolo[2,1-c:2′,1′-l][1]oxa[4,7,10,13]tetraazacyclo-hexadecin-20-yl)propanamide] ({NH(1-Me-indolin-5-yl)-CO}-[Phe(3,5-F2)][aThr]P[Pip]A[Pro(4R-Me)]; ester 2-C)",440 ± 30
